Columns and labels:
[1] = Daily change in flux through the RO membrane separator
Experimental: The water that had been subjected to the coagulation-filtration treatment was passed through a fixed-bed activated carbon column at an SV of 20 hr^−1 and then a softening column at an SV of 15 hr^−1. Next, an EDTA-based scale inhibitor (Welclean A801, manufactured by Kurita Water Industries Ltd.) was added in an amount of 10 mg/L (five times the weight of the concentration of calcium ions in softening column-treated water). […] Then the water was passed through an RO membrane separator (with an aromatic-polyamide ultra-low-pressure RO membrane “ES-20”, manufactured by Nitto Denko Corporation) at a permeate flow of 60 L/hr and a recovery rate of 80% to perform RO membrane separation treatment.
Treatment was performed under the same conditions as those in Example 10, except that the pH of the softening column-treated water was adjusted in such a manner that the pH of the RO feed water was 6 (Reference Example 1) or 8.5 (Reference Example 2).
In Example 10, Comparative Example 2, and Reference Examples 1 and 2, daily changes in flux through the RO membrane separator were measured.

viable cells [2] = assay: Viable cell counts at measuring points, industrial water treatment (FIG. 1 embodiment)
Experimental: The water that had been subjected to the coagulation-filtration treatment was passed through an activated carbon column at an SV of 20 hr^−1. Then the water was passed through an RO membrane separator (with an aromatic-polyamide ultra-low-pressure RO membrane “ES-20”, manufactured by Nitto Denko Corporation) at a permeate flow of 60 L/hr and a recovery rate of 80%.
In Example 1 and Comparative Example 1, viable cell counts were measured at several points.
In Examples 2 to 5, concentrations of combined chlorine in activated carbon feed water (water fed into the activated carbon column) and activated carbon-treated water (water from the activated carbon column) were measured, and viable cell counts in the activated carbon-treated water were measured.
In Examples 6 to 9, concentrations of combined chlorine and viable cell counts in the activated carbon-treated water were measured.

viable cells [3] = assay: Viable cell counts at measuring points, nonionic surfactant-containing wastewater treatment (FIG. 2 embodiment)
Experimental: […] Next, an EDTA-based scale inhibitor (Welclean A801, manufactured by Kurita Water Industries Ltd.) was added in an amount of 10 mg/L (five times the weight of the concentration of calcium ions in softening column-treated water). NaOH was added to adjust the pH to 10.5. Then the water was passed through an RO membrane separator (with an aromatic-polyamide ultra-low-pressure RO membrane “ES-20”, manufactured by Nitto Denko Corporation) at a permeate flow of 60 L/hr and a recovery rate of 80% to perform RO membrane separation treatment.
In Example 10 and Comparative Example 2, viable cell counts were measured at several points.
In Examples 11 to 14, viable cell counts in the activated carbon-treated water and the softened water were measured.
In Examples 15 to 18, viable cell counts in the activated carbon-treated water and the softening column-treated water were measured.

[4] = day 1, Example 10 (chloramine T 5 mg-Cl2/L) / Comparative Example 2 (NaClO 0.5 mg-Cl2/L), RO feed water pH 9.5
[5] = day 7, Example 10 (chloramine T 5 mg-Cl2/L) / Comparative Example 2 (NaClO 0.5 mg-Cl2/L), RO feed water pH 9.5
[6] = Example 11, chloramine T added 0.5 mg-Cl2/L (combined chlorine), SV 20 hr^-1, wastewater
[7] = Example 12, chloramine T added 0.8 mg-Cl2/L (combined chlorine), SV 20 hr^-1, wastewater
[8] = Example 15, SV through activated carbon column 10 hr^-1, combined chlorine 1 mg-Cl2/L, wastewater
[9] = Example 16, SV through activated carbon column 15 hr^-1, combined chlorine 1 mg-Cl2/L, wastewater
[10] = Example 1 (chloramine T, combined chlorine 5 mg-Cl2/L) / Comparative Example 1 (NaClO, free chlorine 0.5 mg-Cl2/L), SV 20 hr^-1
[11] = Example 10 (chloramine T, combined chlorine 5 mg-Cl2/L) / Comparative Example 2 (NaClO, free chlorine 0.5 mg-Cl2/L), wastewater TOC 20 mg/L, SV 20 hr^-1

Cc1ccc(S(=O)(=O)[N-]Cl)cc1.[Na+] [Chloramine T, sodium N-chloro-p-toluenesulfonamide trihydrate]
Reduction in flux through the RO membrane separator ([1]; Example 10, chloramine T 5 mg-Cl2/L, RO feed water pH 9.5): no reduction in flux | Flux [1, 4]: 1.0 m^3/m^2 · day | Flux ([1]; day 1, Reference Example 1, chloramine T 5 mg-Cl2/L, RO feed water pH 6): 0.98 m^3/m^2 · day | Flux ([1]; day 1, Reference Example 2, chloramine T 5 mg-Cl2/L, RO feed water pH 8.5): 0.99 m^3/m^2 · day | Flux [1, 5]: 0.95 m^3/m^2 · day | Flux ([1]; day 7, Reference Example 1, chloramine T 5 mg-Cl2/L, RO feed water pH 6): 0.98 m^3/m^2 · day | Flux ([1]; day 7, Reference Example 2, chloramine T 5 mg-Cl2/L, RO feed water pH 8.5): 0.97 m^3/m^2 · day | Flux ([1]; day 30, Example 10 (chloramine T 5 mg-Cl2/L) / Comparative Example 2 (NaClO 0.5 mg-Cl2/L), RO feed water pH 9.5): 0.95 m^3/m^2 · day | Flux ([1]; day 30, Reference Example 1, chloramine T 5 mg-Cl2/L, RO feed water pH 6): 0.97 m^3/m^2 · day | Flux ([1]; day 30, Reference Example 2, chloramine T 5 mg-Cl2/L, RO feed water pH 8.5): 0.97 m^3/m^2 · day | Flux ([1]; day 60, Example 10 (chloramine T 5 mg-Cl2/L), RO feed water pH 9.5): 0.93 m^3/m^2 · day | Flux ([1]; day 90, Example 10 (chloramine T 5 mg-Cl2/L), RO feed water pH 9.5): 0.93 m^3/m^2 · day | Viable cells at all measuring points (viable cells [2]; Example 1, combined chlorine 5 mg-Cl2/L, SV 20 hr^-1): no viable cells were detected | Viable cell count in activated carbon-treated water (viable cells [2]; Example 2, combined chlorine in activated carbon feed water 0.5 mg/L, SV 20 hr^-1): 4 × 10^3 cells/ml | Viable cell count in activated carbon-treated water (viable cells [2]; Example 3, combined chlorine in activated carbon feed water 0.8 mg/L, SV 20 hr^-1): 5 × 10^3 cells/ml | Viable cell count in activated carbon-treated water (viable cells [2]; Example 6, SV through activated carbon column 10 hr^-1, combined chlorine 1 mg-Cl2/L): 9 × 10^3 cells/mil | Viable cell count in activated carbon-treated water (viable cells [2]; Example 7, SV through activated carbon column 15 hr^-1, combined chlorine 1 mg-Cl2/L): 2 × 10^3 cells/mil | Viable cells at all measuring points (viable cells [3]; Example 10, combined chlorine 5 mg-Cl2/L, wastewater, SV 20 hr^-1): no viable cells were detected | Viable cell count, activated carbon-treated water (viable cells [3]; [6]): 3 × 10^4 cells/ml | Viable cell count, softened water (viable cells [3]; [6]): 4 × 10^5 cells/ml | Viable cell count, activated carbon-treated water (viable cells [3]; [7]): 6 × 10^3 cells/ml | Viable cell count, softened water (viable cells [3]; [7]): 8 × 10^4 cells/ml | Viable cell count, activated carbon-treated water (viable cells [3]; [8]): 9 × 10^4 cells/ml | Viable cell count, softened water (viable cells [3]; [8]): 2 × 10^6 cells/ml | Viable cell count, activated carbon-treated water (viable cells [3]; [9]): 2 × 10^5 cells/ml | Viable cell count, softened water (viable cells [3]; [9]): 7 × 10^6 cells/ml

OCl [NaClO, sodium hypochlorite, reference compound]
Flux [1, 4]: 0.98 m^3/m^2 · day | Flux [1, 5]: 0.96 m^3/m^2 · day | Viable cells detected in the activated carbon-treated water (viable cells [2]; Comparative Example 1, free chlorine 0.5 mg-Cl2/L, SV 20 hr^-1): 10^3 viable cells per milliliter | Viable cell count, RO feed water (viable cells [2]; [10]): 4 × 10^3 cells/ml | Viable cell count, RO-concentrated water (viable cells [2]; [10]): 2 × 10^5 cells/ml | Viable cell count, activated carbon-treated water (viable cells [2]; [10]): 5 × 10^3 cells/ml | Viable cells detected in the activated carbon-treated water (viable cells [3]; Comparative Example 2, free chlorine 0.5 mg-Cl2/L, wastewater): 10^5 viable cells per milliliter | Viable cells detected in the softening column-treated water (viable cells [3]; Comparative Example 2, free chlorine 0.5 mg-Cl2/L, wastewater, sampled before the addition of the alkali): 10^6 viable cells per milliliter | Viable cell count, activated carbon-treated water (viable cells [3]; [11]): 10^5 cells/ml | Viable cell count, softened water (viable cells [3]; [11]): 10^6 cells/ml

Source: patent publication US20100206809A1, “METHOD AND APPARATUS FOR TREATING ORGANIC MATTER-CONTAINING WATER” (KURITA WATER INDUSTRIES LTD., priority 2007, published 2010)
